According to patent publication US9534209B2, “Methods and tools for identification of RSK/MSK kinase inhibitors” (Aarhus Universitet, priority 2012, dated 2017):
Structures can show the parent of a compound that is named as a salt.

What was measured:
[1] = molecular target: T1, C-terminal kinase domain of murine RSK2 (Mus musculus, UniProt P18654); assay: X-ray co-crystal structure of RSK2 C-terminal kinase domain with DMF; type: binding; details: 1.9 Å resolution X-ray crystal structure; RSK2 8 mg/ml with 5 mM DMF, 30 min at room temperature
T1 construct: His8 (N, cleaved yes); linker DYDIPTT (N, cleaved yes); TEV protease site ENLYFQG (only the final G remains after cleavage) (N, cleaved yes); made in house; host or cells: E. coli BL21 (DE3) Rosetta, RSK2-pET-22b
Source text: A construct of the C-terminal kinase domain of murine Ribosomal S6 Kinase 2 (RSK2) (residues 400-740; SEQ ID NO. 2) including a N-terminal polyhistidine tag (His8), a linker (DYDIPTT) (SEQ ID NO: 21) and a Tobacco Etch Virus (TEV) protease site (ENLYFQG) (SEQ ID NO: 22) in the expressed kinase was designed and ordered from Genscript. The synthesised gene was subcloned into pET-22b (Novagen) by the vendor resulting in RSK2-pET-22b. BI21 (DE3) Rosetta was transformed with RSK2-pET-22b and plated on lysogeny broth (LB) agar plates supplemented with 50 μg/ml ampicillin (Amp) and 35 μg/ml Chloramphenicol (Cam). 5 colonies were used for inoculation of a 20 ml LB overnight culture supplemented with 100 μg/ml Amp and 35 μg/ml Cam. 2 liters of LB, supplemented with 100 μg/ml Amp and 35 μg/ml Cam, was inoculated with the overnight culture and grown at 37° C. Expression was induced with 0.1 mM isopropyl β-D-1-thiogalactopyranoside at an optical density of A600 nm=0.8 and the temperature was lowered to 20° C. for 3 h and further lowered to 12° C. for 20 hours. […] Protein concentration was evaluated by spectrophotometry (Nanodrop, Thermo Fisher Scientific) assuming εRSK2=44350 cm^−1 M^−1 and MRSK2=38.4 kDa. […] RSK2 purity was evaluated by SDS-PAGE using a 15% separation gel. […] The purification procedure resulted >95% pure and stable RSK2 evaluated by SDS-PAGE and mass spectrometry. […]

RSK2 cysteine 599 (C599) = molecular target: T2, RSK2 cysteine 599 (C599) (Mus musculus, UniProt P18654); assay: Mass spectrometric analysis of DMF modification of RSK2; type: binding, murine; details: chymotrypsin digest, MALDI TOF/TOF
T2 construct: His8 (N, cleaved yes); linker DYDIPTT (N, cleaved yes); TEV protease site ENLYFQG (only the final G remains after cleavage) (N, cleaved yes); made in house; host or cells: E. coli BL21 (DE3) Rosetta, RSK2-pET-22b
Source text: A construct of the C-terminal kinase domain of murine Ribosomal S6 Kinase 2 (RSK2) (residues 400-740; SEQ ID NO. 2) including a N-terminal polyhistidine tag (His8), a linker (DYDIPTT) (SEQ ID NO: 21) and a Tobacco Etch Virus (TEV) protease site (ENLYFQG) (SEQ ID NO: 22) in the expressed kinase was designed and ordered from Genscript. The synthesised gene was subcloned into pET-22b (Novagen) by the vendor resulting in RSK2-pET-22b. BI21 (DE3) Rosetta was transformed with RSK2-pET-22b and plated on lysogeny broth (LB) agar plates supplemented with 50 μg/ml ampicillin (Amp) and 35 μg/ml Chloramphenicol (Cam). 5 colonies were used for inoculation of a 20 ml LB overnight culture supplemented with 100 μg/ml Amp and 35 μg/ml Cam. […] Protein concentration was evaluated by spectrophotometry (Nanodrop, Thermo Fisher Scientific) assuming εRSK2=44350 cm^−1 M^−1 and MRSK2=38.4 kDa. […] RSK2 purity was evaluated by SDS-PAGE using a 15% separation gel. […] The purification procedure resulted >95% pure and stable RSK2 evaluated by SDS-PAGE and mass spectrometry.
RSK2 samples were reduced and alkylated with iodoacetamide, i.e. carbamidomethylated, and subsequently digested with chymotrypsin. […] The peptide mixture was analyzed in positive reflector mode for accurate peptide mass determination. […]

RSK2 = molecular target: T3, RSK2 (Mus musculus, UniProt P18654, C599V); assay: Mutational study of RSK2 in EGF-stimulated HEK 293 cells, Western blot p-RSK2 (Ser386); type: cell-based; details: 140 μM DMF pre-incubated 1 hour, 1 ng/ml EGF for 15 minutes
T3 construct: expressed in transfected cells; host or cells: HEK-293
Description: Human embryonic kidney cells (HEK-293) were cultured in tissue culture flasks (150 cm^2) to 60% confluence in Dulbecco's modified Eagle's medium (DMEM) (Gibco) supplemented with 50 units/ml penicillin G (Gibco), […] streptomycin (Invitrogen), 5 μg/ml gentamycin (Gibco), 10% (v/v) foetal bovine serum (FBS) (Gibco) and 2.5% HEPES (Gibco). Cells were trypsinated and seeded in 10 cm petri dishes at a density of 6.5×10^6 cells per dish in 10 ml DMEM supplemented with 50 μg/ml bovine pituitary growth hormone (BGH) (Gibco), antibiotics (penicillin G, streptomycin, gentamycin) and 2% FBS and 2.5% HEPES and were incubated for 2 days. The culture medium was changed to 7 ml DMEM supplemented with 2.5% Hepes for 16 hours. Transfection with plasmids was performed as previously described Jensen et al. 1999^57 with modifications. HEK-293 cells were transfected using 3.5 μg plasmid DNA/dish dissolved in 250 μl Optimem (Invitrogen) and 30 μl Lipofectamine 2000 (Invitrogen) dissolved in 250 μl Optimem added together for 20 minutes before transferred to cells. […]
(§1) Dimethylfumarate (DMF) (Sigma-Aldrich) was dissolved in dimethylsulfoxide (DMSO) (Merck) resulting in a 70 mM stock solution and diluted to 7 mM (4% v/v DMSO) in culture medium. […] Densitometry analysis of the band intensity was performed on a flatbed scanner (Epson PERFECTION V750PRO) and quantitated by Jelly Quant.

human MSK1 = molecular target: T4, human MSK1 (Homo sapiens, UniProt O75582, C603V); assay: Mutational study of MSK1 in EGF-stimulated HEK 293 cells, Western blot p-MSK1 (Ser376); type: cell-based; details: 140 μM DMF pre-incubated 1 hour, 1 ng/ml EGF for 30 minutes
T4 construct: expressed in transfected cells; host or cells: HEK-293, vector pEBG2T
Description: Mutational analysis of MSK1 was performed in a mammalian expression vector (pEBG2T) in which a glutathione S-transferase (GST) domain and FLAG-tag (Asp-Tyr-Lys-Asp-Asp-Asp-Asp-Lys) was fused to the N-terminus of human MSK1 (GST-FLAG-MSK1)^6. The positions corresponding to C436, T579 and C599 in murine RSK2 (SEQ ID NO: 1) of human MSK1 (C440, T583 and C603) were mutated to Val, Ser and Thr (For T583 only an Ala mutation was performed) using the QuikChange Lightning Kit (Agilent Technologies).
Human embryonic kidney cells (HEK-293) were cultured in tissue culture flasks (150 cm^2) to 60% confluence in Dulbecco's modified Eagle's medium (DMEM) (Gibco) supplemented with 50 units/ml penicillin G (Gibco), […] streptomycin (Invitrogen), 5 μg/ml gentamycin (Gibco), 10% (v/v) foetal bovine serum (FBS) (Gibco) and 2.5% HEPES (Gibco). […]
as §1, with “Quant. […]” for “Quant.”

T3 sequence (P18654 whole entry C599V): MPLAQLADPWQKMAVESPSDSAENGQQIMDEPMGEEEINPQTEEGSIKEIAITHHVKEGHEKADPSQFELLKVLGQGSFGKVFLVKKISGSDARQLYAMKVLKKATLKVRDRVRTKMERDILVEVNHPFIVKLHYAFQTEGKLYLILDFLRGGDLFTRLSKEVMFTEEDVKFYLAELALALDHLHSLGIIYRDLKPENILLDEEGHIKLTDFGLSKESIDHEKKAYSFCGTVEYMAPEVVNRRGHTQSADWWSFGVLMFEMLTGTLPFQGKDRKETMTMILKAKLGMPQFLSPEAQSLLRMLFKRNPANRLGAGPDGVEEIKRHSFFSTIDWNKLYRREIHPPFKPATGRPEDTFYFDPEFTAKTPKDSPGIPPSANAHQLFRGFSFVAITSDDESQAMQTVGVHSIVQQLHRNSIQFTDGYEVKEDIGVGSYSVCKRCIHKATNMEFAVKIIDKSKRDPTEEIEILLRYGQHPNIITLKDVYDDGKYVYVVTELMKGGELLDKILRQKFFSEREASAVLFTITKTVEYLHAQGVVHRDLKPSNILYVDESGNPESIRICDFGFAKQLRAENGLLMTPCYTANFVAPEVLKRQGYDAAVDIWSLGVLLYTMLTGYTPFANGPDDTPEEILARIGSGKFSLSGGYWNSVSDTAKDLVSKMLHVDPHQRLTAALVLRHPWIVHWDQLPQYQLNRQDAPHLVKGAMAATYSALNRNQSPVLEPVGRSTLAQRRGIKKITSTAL
T2 sequence (P18654 with tags, fused parts or gaps): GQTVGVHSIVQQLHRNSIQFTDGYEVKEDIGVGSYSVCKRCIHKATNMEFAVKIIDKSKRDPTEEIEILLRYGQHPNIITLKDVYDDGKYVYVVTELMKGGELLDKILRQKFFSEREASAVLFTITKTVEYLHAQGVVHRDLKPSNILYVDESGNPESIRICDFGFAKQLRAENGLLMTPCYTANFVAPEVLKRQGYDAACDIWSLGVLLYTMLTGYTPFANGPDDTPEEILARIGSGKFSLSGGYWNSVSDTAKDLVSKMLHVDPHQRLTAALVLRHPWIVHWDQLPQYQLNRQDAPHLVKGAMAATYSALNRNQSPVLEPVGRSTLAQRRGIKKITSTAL
T1 sequence (P18654 with tags, fused parts or gaps): as above
T4 sequence (O75582 whole entry C603V): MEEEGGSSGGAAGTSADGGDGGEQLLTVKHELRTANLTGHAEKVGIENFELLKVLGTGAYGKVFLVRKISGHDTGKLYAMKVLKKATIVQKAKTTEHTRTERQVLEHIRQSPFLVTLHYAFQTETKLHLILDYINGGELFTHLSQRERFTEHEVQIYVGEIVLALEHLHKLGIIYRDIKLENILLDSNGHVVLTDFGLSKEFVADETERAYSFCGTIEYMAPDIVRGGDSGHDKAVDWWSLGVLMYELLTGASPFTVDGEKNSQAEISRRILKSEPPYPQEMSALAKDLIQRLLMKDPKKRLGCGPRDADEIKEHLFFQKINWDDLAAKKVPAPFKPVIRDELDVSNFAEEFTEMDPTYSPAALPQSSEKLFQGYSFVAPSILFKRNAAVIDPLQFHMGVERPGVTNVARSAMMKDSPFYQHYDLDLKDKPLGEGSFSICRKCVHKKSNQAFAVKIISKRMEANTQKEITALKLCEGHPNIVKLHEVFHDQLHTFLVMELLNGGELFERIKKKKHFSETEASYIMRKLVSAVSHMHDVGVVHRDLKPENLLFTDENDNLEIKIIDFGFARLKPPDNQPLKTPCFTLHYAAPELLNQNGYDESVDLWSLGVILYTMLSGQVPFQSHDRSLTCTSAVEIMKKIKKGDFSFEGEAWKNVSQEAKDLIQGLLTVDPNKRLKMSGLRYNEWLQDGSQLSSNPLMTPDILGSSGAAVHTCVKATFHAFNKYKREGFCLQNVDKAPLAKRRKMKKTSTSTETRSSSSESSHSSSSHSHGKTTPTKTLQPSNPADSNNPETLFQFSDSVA

COC(=O)/C=C/C(=O)OC [DMF, dimethyl fumarate]
binding of DMF to RSK2 in co-crystal structure [1]: binding of one DMF molecule to RSK2
covalent modification of C599 of RSK2 by DMF (RSK2 cysteine 599 (C599)): Covalent modification of C599 was identified
effect of DMF on phosphorylation of S386 of RSK2 mutant C599 to valine (RSK2): no decrease in the phosphorylation of S386 was observed
effect of DMF on phosphorylation of S376 of MSK1 mutant C603 to valine (human MSK1): no decrease in the phosphorylation of S376 was observed
